Test results from ChEMBL document CHEMBL4052785, “Discovery of (R)-5-(benzo[d][1,3]dioxol-5-yl)-7-((1-(vinylsulfonyl)pyrrolidin-2-yl)methyl)-7H-pyrrolo[2,3-d]pyrimidin-4-amine (B6) as a potent Bmx inhibitor for the treatment of NSCLC” (Bioorg Med Chem Lett, 2017).

Legend:
[1] = molecular target: Receptor-type tyrosine-protein kinase FLT3 (Homo sapiens, UniProt P36888); test: Inhibition of recombinant human N-terminal GST-tagged FLT3 (564 to end residues) expressed in expressed in Sf21 cells preincubated for 5 mins followed by substrate addition after 30 to 60 mins in presence of ATP by fluorescence assay
[2] = molecular target: Macrophage colony-stimulating factor 1 receptor (Homo sapiens, UniProt P07333); test: Inhibition of recombinant human N-terminal His6-tagged FMS (538 to end residues) expressed in baculovirus Sf21 insect cells preincubated for 5 mins followed by substrate addition after 30 to 60 mins in presence of ATP by fluorescence assay
Homo sapiens [3] = species on record: Homo sapiens; test: Selectivity ratio of IC50 for recombinant human N-terminal His6-tagged RIPK2 (1 to 299 residues) to IC50 for human full length N-terminal His6-tagged BMX
[4] = molecular target: Receptor-interacting serine/threonine-protein kinase 2 (Homo sapiens, UniProt O43353); test: Inhibition of recombinant human N-terminal His6-tagged RIPK2 (1 to 299 residues) expressed in baculovirus Sf21 insect cells preincubated for 5 mins followed by substrate addition after 30 to 60 mins in presence of ATP by fluorescence assay
Homo sapiens [5] = species on record: Homo sapiens; test: Selectivity ratio of IC50 for recombinant human N-terminal GST-tagged FLT3 (564 to end residues) to IC50 for human full length N-terminal His6-tagged BMX
Homo sapiens [6] = species on record: Homo sapiens; test: Selectivity ratio of IC50 for recombinant human N-terminal GST-tagged RET (658 to end residues) to IC50 for human full length N-terminal His6-tagged BMX
[7] = molecular target: Tyrosine-protein kinase JAK1 (Homo sapiens, UniProt P23458); test: Inhibition of human JAK1 expressed in baculovirus in Sf21 insect cells preincubated for 5 mins followed by substrate addition after 30 to 60 mins in presence of ATP by fluorescence assay
Sequence of Tyrosine-protein kinase JAK1 (P23458 whole entry): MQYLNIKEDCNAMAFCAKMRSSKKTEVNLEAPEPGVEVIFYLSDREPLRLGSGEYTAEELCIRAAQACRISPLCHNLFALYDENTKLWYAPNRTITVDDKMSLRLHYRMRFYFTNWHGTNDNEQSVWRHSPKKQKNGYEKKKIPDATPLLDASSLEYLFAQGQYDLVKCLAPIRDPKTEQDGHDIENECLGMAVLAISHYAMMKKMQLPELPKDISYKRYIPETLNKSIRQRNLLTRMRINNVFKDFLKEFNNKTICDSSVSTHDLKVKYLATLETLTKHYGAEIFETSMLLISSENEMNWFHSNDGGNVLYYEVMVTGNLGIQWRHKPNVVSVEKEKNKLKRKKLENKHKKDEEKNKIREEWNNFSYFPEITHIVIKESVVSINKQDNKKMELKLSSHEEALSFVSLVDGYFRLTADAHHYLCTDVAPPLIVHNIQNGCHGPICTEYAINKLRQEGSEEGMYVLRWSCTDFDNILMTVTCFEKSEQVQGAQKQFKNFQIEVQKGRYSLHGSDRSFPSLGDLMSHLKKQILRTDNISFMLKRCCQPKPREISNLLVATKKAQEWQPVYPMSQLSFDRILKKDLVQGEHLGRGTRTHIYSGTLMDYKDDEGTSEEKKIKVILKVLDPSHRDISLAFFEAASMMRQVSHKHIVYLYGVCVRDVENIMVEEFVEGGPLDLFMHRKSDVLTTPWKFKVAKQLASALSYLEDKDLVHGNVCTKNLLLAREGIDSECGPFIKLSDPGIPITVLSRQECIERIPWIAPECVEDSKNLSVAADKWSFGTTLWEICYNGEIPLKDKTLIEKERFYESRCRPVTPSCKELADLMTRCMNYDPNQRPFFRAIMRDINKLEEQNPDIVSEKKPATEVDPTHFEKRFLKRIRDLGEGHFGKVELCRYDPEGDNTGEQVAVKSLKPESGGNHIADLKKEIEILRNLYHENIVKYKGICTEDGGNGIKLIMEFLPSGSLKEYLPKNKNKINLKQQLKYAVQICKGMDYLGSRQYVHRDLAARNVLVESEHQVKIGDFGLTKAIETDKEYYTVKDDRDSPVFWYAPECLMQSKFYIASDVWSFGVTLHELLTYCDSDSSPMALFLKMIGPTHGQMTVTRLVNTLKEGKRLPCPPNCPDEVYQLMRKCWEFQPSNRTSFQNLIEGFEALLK

[8] = molecular target: Tyrosine-protein kinase JAK2 (Homo sapiens, UniProt O60674); test: Inhibition of recombinant human C-terminal His6-tagged JAK2 (808 to end residues) expressed in baculovirus Sf21 insect cells preincubated for 5 mins followed by substrate addition after 30 to 60 mins in presence of ATP by fluorescence assay
[9] = molecular target: Tyrosine-protein kinase Lck (Homo sapiens, UniProt P06239); test: Inhibition of recombinant human full length N-terminal His6-tagged LCK expressed in Sf21 insect cells preincubated for 5 mins followed by substrate addition after 30 to 60 mins in presence of ATP by fluorescence assay
[10] = molecular target: Serine/threonine-protein kinase PLK1 (Homo sapiens, UniProt P53350); test: Inhibition of recombinant human N-terminal His6-tagged PLK1 expressed in baculovirus Sf21 insect cells preincubated for 5 mins followed by substrate addition after 30 to 60 mins in presence of ATP by fluorescence assay
Sequence of Serine/threonine-protein kinase PLK1 (P53350 whole entry): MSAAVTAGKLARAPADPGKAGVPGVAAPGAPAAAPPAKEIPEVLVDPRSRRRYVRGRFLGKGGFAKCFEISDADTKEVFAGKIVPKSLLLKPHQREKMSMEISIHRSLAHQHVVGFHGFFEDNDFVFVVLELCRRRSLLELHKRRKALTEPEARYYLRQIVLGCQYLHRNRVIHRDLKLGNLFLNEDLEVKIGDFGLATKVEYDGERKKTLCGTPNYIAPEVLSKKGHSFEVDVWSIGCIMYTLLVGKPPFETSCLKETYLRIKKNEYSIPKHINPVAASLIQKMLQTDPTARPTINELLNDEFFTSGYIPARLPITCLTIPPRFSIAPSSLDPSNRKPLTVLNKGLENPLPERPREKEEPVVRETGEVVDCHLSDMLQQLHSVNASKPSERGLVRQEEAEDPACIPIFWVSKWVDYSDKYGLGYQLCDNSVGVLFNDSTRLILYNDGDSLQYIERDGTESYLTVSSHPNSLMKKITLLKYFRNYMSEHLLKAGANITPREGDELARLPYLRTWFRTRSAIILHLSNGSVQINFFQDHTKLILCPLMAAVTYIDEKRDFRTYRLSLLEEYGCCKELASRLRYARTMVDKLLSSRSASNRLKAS

Homo sapiens [11] = species on record: Homo sapiens; test: Selectivity ratio of IC50 for recombinant human N-terminal His6-tagged ABL (27 to end residues) to IC50 for human full length N-terminal His6-tagged BMX
[12] = molecular target: Tyrosine-protein kinase FRK (Homo sapiens, UniProt P42685); test: Inhibition of recombinant human N-terminal His6-tagged FRK (218 to end residues) expressed in baculovirus Sf21 insect cells preincubated for 5 mins followed by substrate addition after 30 to 60 mins in presence of ATP by fluorescence assay
Sequence of Tyrosine-protein kinase FRK (P42685 whole entry): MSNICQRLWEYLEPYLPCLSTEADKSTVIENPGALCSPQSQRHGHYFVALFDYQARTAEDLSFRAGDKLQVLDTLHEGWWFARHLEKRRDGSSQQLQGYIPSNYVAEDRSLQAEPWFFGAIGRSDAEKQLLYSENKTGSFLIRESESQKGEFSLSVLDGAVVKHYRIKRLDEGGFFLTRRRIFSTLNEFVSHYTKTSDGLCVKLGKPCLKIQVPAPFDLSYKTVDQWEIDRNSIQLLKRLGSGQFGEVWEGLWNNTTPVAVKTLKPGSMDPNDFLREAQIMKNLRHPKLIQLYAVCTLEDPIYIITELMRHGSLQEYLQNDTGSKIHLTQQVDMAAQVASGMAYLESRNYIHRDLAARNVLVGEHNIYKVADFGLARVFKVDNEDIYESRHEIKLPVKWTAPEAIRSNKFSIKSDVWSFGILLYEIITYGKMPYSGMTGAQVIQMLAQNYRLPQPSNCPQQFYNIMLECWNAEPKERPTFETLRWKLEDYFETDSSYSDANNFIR

Homo sapiens [13] = species on record: Homo sapiens; test: Selectivity ratio of IC50 for recombinant human N-terminal His6-tagged FER (541 to end residues) to IC50 for human full length N-terminal His6-tagged BMX
[14] = molecular target: Tyrosine-protein kinase Fgr (Homo sapiens, UniProt P09769); test: Inhibition of recombinant human N-terminal His6-tagged FGR (2 to end residues) expressed in baculovirus Sf21 insect cells preincubated for 5 mins followed by substrate addition after 30 to 60 mins in presence of ATP by fluorescence assay
Sequence of Tyrosine-protein kinase Fgr (P09769 whole entry): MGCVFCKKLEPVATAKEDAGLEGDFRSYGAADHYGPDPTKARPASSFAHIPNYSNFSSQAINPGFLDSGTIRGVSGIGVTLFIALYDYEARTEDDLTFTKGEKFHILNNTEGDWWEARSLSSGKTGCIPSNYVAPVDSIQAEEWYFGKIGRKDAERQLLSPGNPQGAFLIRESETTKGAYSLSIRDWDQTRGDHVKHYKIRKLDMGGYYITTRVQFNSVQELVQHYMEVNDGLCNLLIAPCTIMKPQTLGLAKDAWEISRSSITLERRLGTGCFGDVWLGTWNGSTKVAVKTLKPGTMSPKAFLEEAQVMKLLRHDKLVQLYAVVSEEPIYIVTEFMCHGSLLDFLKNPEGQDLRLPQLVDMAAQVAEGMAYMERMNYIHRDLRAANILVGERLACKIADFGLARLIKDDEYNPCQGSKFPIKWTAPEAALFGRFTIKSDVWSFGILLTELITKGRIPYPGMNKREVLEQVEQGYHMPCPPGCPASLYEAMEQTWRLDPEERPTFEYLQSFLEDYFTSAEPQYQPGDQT

Homo sapiens [15] = species on record: Homo sapiens; test: Selectivity ratio of IC50 for recombinant human N-terminal His6-tagged FGR (2 to end residues) to IC50 for human full length N-terminal His6-tagged BMX
Homo sapiens [16] = species on record: Homo sapiens; test: Selectivity ratio of IC50 for recombinant human N-terminal GST-tagged MKK7beta (2 to end residues) to IC50 for human full length N-terminal His6-tagged BMX
Homo sapiens [17] = species on record: Homo sapiens; test: Selectivity ratio of IC50 for recombinant human N-terminal His6-tagged HCK (230 to 497 residues) to IC50 for human full length N-terminal His6-tagged BMX
[18] = molecular target: Proto-oncogene tyrosine-protein kinase Src (Homo sapiens, UniProt P12931); test: Inhibition of recombinant human full length N-terminal His6-tagged SRC expressed in Sf21 insect cells preincubated for 5 mins followed by substrate addition after 30 to 60 mins in presence of ATP by fluorescence assay
Sequence of Proto-oncogene tyrosine-protein kinase Src (P12931 2-536 limits assumed): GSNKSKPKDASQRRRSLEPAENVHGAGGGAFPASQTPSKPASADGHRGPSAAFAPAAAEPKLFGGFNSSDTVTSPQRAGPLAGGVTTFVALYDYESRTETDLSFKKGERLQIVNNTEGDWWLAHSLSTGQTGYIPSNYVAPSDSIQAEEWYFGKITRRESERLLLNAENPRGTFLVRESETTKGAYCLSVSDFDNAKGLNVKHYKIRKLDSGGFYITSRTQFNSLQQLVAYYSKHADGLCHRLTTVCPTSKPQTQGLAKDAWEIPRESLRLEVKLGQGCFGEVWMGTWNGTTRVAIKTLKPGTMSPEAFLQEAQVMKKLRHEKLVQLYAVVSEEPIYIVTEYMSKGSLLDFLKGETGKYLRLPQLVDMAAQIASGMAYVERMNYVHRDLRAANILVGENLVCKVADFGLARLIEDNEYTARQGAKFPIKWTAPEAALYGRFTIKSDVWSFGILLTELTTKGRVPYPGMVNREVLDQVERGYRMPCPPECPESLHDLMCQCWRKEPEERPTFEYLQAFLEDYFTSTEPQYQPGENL

[19] = molecular target: Tyrosine-protein kinase Tec (Homo sapiens, UniProt P42680); test: Inhibition of recombinant human N-terminal His6-tagged TEC (174 to end residues) expressed in baculovirus Sf21 insect cells preincubated for 5 mins followed by Ulight-TK peptide substrate addition after 30 to 60 mins in presence of ATP by fluorescence assay
Homo sapiens [20] = species on record: Homo sapiens; test: Selectivity ratio of IC50 for human N-terminal 6His-tagged HER4 (706 to 991 residues) to IC50 for human full length N-terminal His6-tagged BMX
[21] = molecular target: Tyrosine-protein kinase Fyn (Homo sapiens, UniProt P06241); test: Inhibition of recombinant human full length N-terminal His6-tagged FYN expressed in baculovirus Sf21 insect cells preincubated for 5 mins followed by biotinyl-beta Abeta Abeta AYQAEENTYDEYEN substrate addition after 30 to 60 mins in presence of ATP by fluorescence assay
[22] = molecular target: Receptor tyrosine-protein kinase erbB-4 (Homo sapiens, UniProt Q15303); test: Inhibition of human N-terminal 6His-tagged HER4 (706 to 991 residues) preincubated for 5 mins followed by substrate addition after 30 to 60 mins in presence ATP of fluorescence assay
Sequence of Receptor tyrosine-protein kinase erbB-4 (Q15303 whole entry, the tested form may be a part): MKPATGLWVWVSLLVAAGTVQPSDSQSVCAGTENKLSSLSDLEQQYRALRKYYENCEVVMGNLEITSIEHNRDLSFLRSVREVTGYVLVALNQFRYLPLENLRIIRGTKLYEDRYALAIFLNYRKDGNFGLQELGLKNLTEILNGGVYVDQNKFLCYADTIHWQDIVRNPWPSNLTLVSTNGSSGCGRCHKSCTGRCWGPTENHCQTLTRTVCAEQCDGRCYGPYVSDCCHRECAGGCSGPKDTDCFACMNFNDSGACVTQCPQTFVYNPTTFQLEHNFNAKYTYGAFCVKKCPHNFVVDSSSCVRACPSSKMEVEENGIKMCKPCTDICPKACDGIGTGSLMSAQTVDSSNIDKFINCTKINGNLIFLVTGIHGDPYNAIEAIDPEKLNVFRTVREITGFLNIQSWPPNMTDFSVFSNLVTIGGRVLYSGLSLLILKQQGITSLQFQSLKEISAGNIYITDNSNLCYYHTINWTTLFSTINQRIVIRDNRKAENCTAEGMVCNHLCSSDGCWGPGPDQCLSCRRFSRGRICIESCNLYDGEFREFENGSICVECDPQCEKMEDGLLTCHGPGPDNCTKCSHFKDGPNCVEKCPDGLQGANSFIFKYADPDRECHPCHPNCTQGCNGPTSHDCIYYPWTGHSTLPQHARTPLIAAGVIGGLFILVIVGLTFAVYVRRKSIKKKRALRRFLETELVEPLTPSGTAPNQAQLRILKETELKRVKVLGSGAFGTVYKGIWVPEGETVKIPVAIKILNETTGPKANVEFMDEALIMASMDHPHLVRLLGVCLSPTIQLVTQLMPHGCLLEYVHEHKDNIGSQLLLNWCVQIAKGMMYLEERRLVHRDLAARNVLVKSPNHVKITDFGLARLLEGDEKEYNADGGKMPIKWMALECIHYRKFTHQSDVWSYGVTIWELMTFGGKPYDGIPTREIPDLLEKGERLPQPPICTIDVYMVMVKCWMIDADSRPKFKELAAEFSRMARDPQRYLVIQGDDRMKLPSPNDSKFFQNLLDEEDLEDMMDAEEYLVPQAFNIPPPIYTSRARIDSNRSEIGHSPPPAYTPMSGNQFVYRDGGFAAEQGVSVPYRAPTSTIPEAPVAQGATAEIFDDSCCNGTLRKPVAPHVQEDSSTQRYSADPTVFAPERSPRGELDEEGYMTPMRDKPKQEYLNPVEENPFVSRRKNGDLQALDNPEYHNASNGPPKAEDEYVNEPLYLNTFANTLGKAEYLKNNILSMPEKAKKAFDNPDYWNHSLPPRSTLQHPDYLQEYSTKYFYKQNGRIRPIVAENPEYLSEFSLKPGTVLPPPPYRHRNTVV

Homo sapiens [23] = species on record: Homo sapiens; test: Selectivity ratio of IC50 for recombinant human C-terminal His6-tagged JAK2 (808 to end residues) to IC50 for human full length N-terminal His6-tagged BMX
Homo sapiens [24] = species on record: Homo sapiens; test: Selectivity ratio of IC50 for RSK1 (unknown origin) to IC50 for human full length N-terminal His6-tagged BMX
[25] = molecular target: Ribosomal protein S6 kinase alpha-1 (Homo sapiens, UniProt Q15418); test: Inhibition of RSK1 (unknown origin) preincubated for 5 mins followed by substrate addition after 30 to 60 mins in presence of ATP by fluorescence assay
[26] = molecular target: Tyrosine-protein kinase Yes (Homo sapiens, UniProt P07947); test: Inhibition of recombinant human full length N-terminal His6-tagged YES expressed in baculovirus Sf21 insect cells preincubated for 5 mins followed by biotinyl-beta Abeta Abeta AYQAEENTYDEYEN substrate addition after 30 to 60 mins in presence of ATP by fluorescence assay
[27] = molecular target: Tyrosine-protein kinase Lyn (Homo sapiens, UniProt P07948); test: Inhibition of recombinant human full length N-terminal His6-tagged LYN expressed in Sf21 insect cells preincubated for 5 mins followed by […] substrate addition after 30 to 60 mins in presence of ATP by fluorescence assay

`C=CS(=O)(=O)N1CCC[C@@H]1Cn1cc(-c2ccc3c(c2)OCO3)c2c(N)ncnc21` was tested, and the IC50 [1] was 3280 nM, the IC50 [2] was 4700 nM and the Ratio IC50 (Homo sapiens [3]) was 11.3. For the same compound, the IC50 [4] was 403 nM, the Ratio IC50 (Homo sapiens [5]) was 91.7 and the Ratio IC50 (Homo sapiens [6]) was 2.5. It also gave an IC50 [7] greater than 10000 nM, an IC50 [8] greater than 10000 nM and an IC50 [9] of 195 nM. It also gave an IC50 [10] greater than 10000 nM, a Ratio IC50 (Homo sapiens [11]) of 22.5 and an IC50 [12] of 510 nM. The Ratio IC50 (Homo sapiens [13]) was 166, the IC50 [14] was 133 nM and the Ratio IC50 (Homo sapiens [15]) was 3.7. For the same compound, the Ratio IC50 (Homo sapiens [16]) was 5.3, the Ratio IC50 (Homo sapiens [17]) was 5.6 and the IC50 [18] was 197 nM. It also gave an IC50 [19] of 115 nM, a Ratio IC50 (Homo sapiens [20]) of 28.1 and an IC50 [21] of 430 nM. It also gave an IC50 [22] of 1000 nM, a Ratio IC50 (Homo sapiens [23]) greater than 280 and a Ratio IC50 (Homo sapiens [24]) greater than 280. The IC50 [25] was greater than 10000 nM, the IC50 [26] was 57.3 nM and the IC50 [27] was 312 nM.
